Tests used:
[1] = system: HEL cells; assay: Phosphokinase array (TPO signal cascade); format: cell-based, human; conditions: 5.4 nM rhTPO or 1:1000 diluted TMP-PA8 supernatant, 20 min
Method: The TPO signal cascade was analyzed using the Proteome Profiler Human Phosphokinase Array Kit (R&D Systems). Briefly, 1 × 10^6 HEL cells in a 6-well cell culture dish were starved in RPMI 1640 medium for 24 h. The starved cells were stimulated by 5.4 nM rhTPO or 1:1000 diluted TMP-PA8 containing a C. glutamicum supernatant for 20 min, rinsed once with PBS, and lysed with 200 μL of lysis buffer 17 supplemented with a protease inhibitor cocktail. Lysates were analyzed using the Proteome Profiler Human Phosphokinase Array Kit (R&D Systems) according to the manufacturer’s instructions. Chemiluminescence was detected using Amersham Imager 600 (Cytiva).

[2] = system: HEL cells; assay: Phospho-CREB ELISA; format: cell-based, human
Method: Here, 100,000 HEL cells were seeded on a 96-well cell culture plate in RPMI 1640 medium and incubated overnight for starvation. The starved cells were stimulated by rhTPO or TMP-PA8 for 20 min, rinsed once with PBS, and lysed with lysis buffer 17 supplemented with a protease inhibitor cocktail. The phosphorylation level of CREB was assessed using phospho-CREB (Ser133) and the Total CREB ELISA kit (RayBio) according to the manufacturer’s instructions. The amounts of phospho-CREB and total CREB were quantified by measuring absorbance at 450 nm, and the phospho-CREB level was calculated as (absorbance of pCREB)/(absorbance of total CREB).

Q: For “rhTPO: recombinant human TPO (Peprotech)”, which “phosphorylation of STAT3, STAT5, Erk1/2 and CREB compared with unstimulated cells” value [1] is on record?
A: enhanced

Q: What about the “Normazlied pCREB/CREB” value ([2]; 7.375 pM, replicate 1) of the same substance?
A: 1.252

Q: What about the “Normazlied pCREB/CREB” value ([2]; 7.375 pM, replicate 2) of the same substance?
A: 0.9311

Q: What about the “Normazlied pCREB/CREB” value ([2]; 7.375 pM, replicate 3) of the same substance?
A: 0.9649

Q: And the “Normazlied pCREB/CREB” value ([2]; 22.12 pM, replicate 1)?
A: 1.113

Q: And the “Normazlied pCREB/CREB” value ([2]; 22.12 pM, replicate 2)?
A: 1.1408

Q: What about the “Normazlied pCREB/CREB” value ([2]; 22.12 pM, replicate 3) of the same substance?
A: 1.274

Q: What about the “Normazlied pCREB/CREB” value ([2]; 66.37 pM, replicate 1) of the same substance?
A: 1.03

Q: And the “Normazlied pCREB/CREB” value ([2]; 66.37 pM, replicate 2)?
A: 1.312

Q: What about the “Normazlied pCREB/CREB” value ([2]; 66.37 pM, replicate 3) of the same substance?
A: 1.353

Q: What about the “Normazlied pCREB/CREB” value ([2]; 199.1 pM, replicate 1) of the same substance?
A: 1.208

Q: What about the “Normazlied pCREB/CREB” value ([2]; 199.1 pM, replicate 2) of the same substance?
A: 1.421

Q: And the “Normazlied pCREB/CREB” value ([2]; 199.1 pM, replicate 3)?
A: 1.637

Q: And the “Normazlied pCREB/CREB” value ([2]; 597.4 pM, replicate 1)?
A: 1.281

Q: And the “Normazlied pCREB/CREB” value ([2]; 597.4 pM, replicate 2)?
A: 1.5026

Q: What about the “Normazlied pCREB/CREB” value ([2]; 597.4 pM, replicate 3) of the same substance?
A: 1.479

Q: What about the “Normazlied pCREB/CREB” value ([2]; 1.79211e-9 M, replicate 1) of the same substance?
A: 1.452

Q: And the “Normazlied pCREB/CREB” value ([2]; 1.79211e-9 M, replicate 2)?
A: 1.237

Q: And the “Normazlied pCREB/CREB” value ([2]; 1.79211e-9 M, replicate 3)?
A: 1.5195

Q: And the “Normazlied pCREB/CREB” value ([2]; 5.37634e-9 M, replicate 1)?
A: 1.523

Q: What about the “Normazlied pCREB/CREB” value ([2]; 5.37634e-9 M, replicate 2) of the same substance?
A: 0.9969

Q: And the “Normazlied pCREB/CREB” value ([2]; 5.37634e-9 M, replicate 3)?
A: 1.102

Q: And the “promotion of CREB phosphorylation” value ([2]; at concentrations of 0.1-1 nM)?
A: 1.5 fold

— paper PMC8760323, “Single-chain tandem macrocyclic peptides as a scaffold for growth factor and cytokine mimetics” (Communications Biology, 2022)
